Measured values reported in US7807701B2, “Dibenzylamine compounds and pharmaceutical use thereof” (Japan Tobacco Inc., priority 2002, dated 2010).
Structures can show the parent of a compound that is named as a salt.

Columns and labels:
CETP [1] = experiment: Inhibitory effect exo vivo on CETP activity in total plasma of normal hamster; settings: blood taken 2 hr after administration, average values
Description: Potassium bromide (KBr) was added to plasma (40 mL) of healthy subject and the mixture was adjusted to have a specific density d=1.125 g/mL. The mixture was subjected to density gradient centrifugation (227,000×g, 4° C., 17 hr) and a fraction showing a specific density of d>1.125 g/mL (HDL3 fraction) was harvested. The obtained fraction was dialyzed against PBS solution [10 mmol/L Na2HPO4; 10 mmol/L NaH2PO4; 0.15 mol/L NaCl; […] (pH 7.4)]. Then, tritium-labeled cholesterol (37 MBq) was dissolved in 95% ethanol, gradually added to the above-mentioned HDL3 fraction with stirring and incubated at 37° C. for 18 hr. [By this operation, tritium-labeled cholesterol was esterified by the action of lecithin acyl transferase (LCAT) present on the HDL3 surface and taken up into HDL3 as tritium-labeled cholesteryl ester ([^3H]CE)]. After incubation, KBr was added, the mixture was adjusted to have a specific density d=1.21 g/mL, subjected to density gradient centrifugation (227,000×g, 4° C., 17 hr) and a fraction of specific density […] was harvested. The obtained fraction was dialyzed against the aforementioned PBS solution to give HDL3 incorporating [^3H]CE ([^3H]CE-HDL3, specific density: 1.125<d<1.21, specific activity: 10,000 dpm/μL), which was used as a donor lipoprotein.
The compound of the present invention was suspended in 0.5% methyl cellulose solution and orally administered once to a healthy hamster with a plastic gavage needle. Blood was taken at 2 or 4 hr after the administration and CETP activity in plasma was measured according to the following method.
The donor lipoprotein obtained above was added to hamster plasma (100 μL) to prepare [^3H]CE-HDL3-containing plasma (ca. 1,000 dpm/μL). The [^3H]CE-HDL3-containing plasma was dispensed to two microtubes by 25 μL each, and one was incubated at 37° C. and the other was incubated at 4° C. for 4 hr each. After ice-cooling, TBS solution (50 μl) containing 1 mol/L magnesium chloride and 2% dextran sulfate was added to each microtube and the mixture was thoroughly stirred. After keeping at […] for 30 min, the mixture was centrifuged (10,000×g, 4° C., 20 min), and the radioactivity in the obtained supernatant (HDL fraction) was measured with a liquid scintillation counter. The radioactivity of the [^3H]CE-HDL3-containing plasma was measured with a liquid scintillation counter, and taken as the total radioactivity. The transfer rate of [^3H]CE was calculated from the following formula using the total radioactivity (Total count), radioactivity by 37° C. incubation (37° C. count) and radioactivity by 4° C. incubation (4° C. count) of the sample of each individual and taken as the CETP activity. CETP activity(transfer ratio (%))={[(4° C. count)−(37° C. count)]/(Total count)}×100
The CETP activity inhibitory ratio of each compound administration group based on the CETP activity of the solvent administration group as 100% was calculated from the following formula and expressed in %.
CETP activity inhibitory ratio (%)=100−[(CETP activity of each compound administration group)/(CETP activity of solvent administration group)×100]

CETP [2] = biological target: T1, CETP (Homo sapiens, UniProt P11597); experiment: Inhibitory effect in vitro on CETP activity in total plasma; assay type: biochemical; settings: plasma of healthy subject with [3H]CE-HDL3, 37° C., 4 hr; average values
T1 construct: The donor lipoprotein obtained above was added to plasma of healthy subject; from tissue; host or cells: whole plasma of healthy subject
T1 sequence (P11597 18-493): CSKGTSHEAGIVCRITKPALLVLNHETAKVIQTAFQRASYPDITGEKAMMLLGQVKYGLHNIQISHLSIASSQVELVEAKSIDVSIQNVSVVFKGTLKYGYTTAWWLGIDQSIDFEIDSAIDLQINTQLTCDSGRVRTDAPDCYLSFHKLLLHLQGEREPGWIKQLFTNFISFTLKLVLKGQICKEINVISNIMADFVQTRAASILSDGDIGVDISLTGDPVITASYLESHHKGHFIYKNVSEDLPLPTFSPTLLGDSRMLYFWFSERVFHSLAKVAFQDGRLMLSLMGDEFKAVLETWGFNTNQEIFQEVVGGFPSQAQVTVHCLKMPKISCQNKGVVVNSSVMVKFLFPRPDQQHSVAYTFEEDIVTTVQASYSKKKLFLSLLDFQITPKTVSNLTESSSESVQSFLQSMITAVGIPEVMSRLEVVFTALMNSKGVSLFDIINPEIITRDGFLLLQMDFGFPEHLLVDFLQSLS
In short: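 Healthy-donor plasma spiked with [3H]cholesteryl ester-labelled HDL3 (1,000 dpm/μL) was incubated with compound (DMF vehicle) for 4 hr at 37 °C or 4 °C. HDL was separated by MgCl2/dextran sulfate precipitation and supernatant radioactivity counted. IC50 is the concentration giving 50% inhibition of CETP activity.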

Structure (SMILES)	CETP activity (%) 2 (hr later) (CETP [1]; single oral dose 30 mg/kg)	IC50 (CETP [2])	CETP activity (%) 2 (hr later) (CETP [1]; single oral dose 10 mg/kg)
CCN(CCCCC(=O)OC)c1cc2c(cc1CN(Cc1cc(C#N)cc(C(F)(F)F)c1)c1nnn(C)n1)CCC2.Cl [Example 36]	33.3%		
CCN(CCCCC(=O)O)c1cc2c(cc1CN(Cc1cc(C(F)(F)F)cc(C(F)(F)F)c1)c1ccn(C)n1)CCC2.Cl [Example 41, 5-[N-(6-{[N′-[3,5-bis(trifluoromethyl)benzyl]-N′-(1-methyl-1H-pyrazol-3-yl)amino]methyl}indan-5-yl)-N-ethylamino]pentanoic acid hydrochloride]	36.0%	510 nM	
CCN(CCC(C)(C)CC(=O)O)c1ccc(OC(F)(F)F)cc1CN(Cc1cc(C(F)(F)F)cc(C(F)(F)F)c1)c1ccn(C)n1.Cl [Example 107, 5-[N-(2-{[N′-[3,5-bis(trifluoromethyl)benzyl]-N′-(1-methyl-1H-pyrazol-3-yl)amino]methyl}-4-trifluoromethoxyphenyl)-N-ethylamino]-3,3-dimethylpentanoic acid hydrochloride]		560 nM	41.9%
CCN(CCC(C)(C)CC(=O)O)c1ccc(OC(F)(F)F)cc1CN(Cc1cc(C(F)(F)F)cc(C(F)(F)F)c1)c1noc(C)n1.Cl [Example 108, 5-[N-(2-{[N′-[3,5-bis(trifluoromethyl)benzyl]-N′-(5-methyl-[1,2,4]oxadiazol-3-yl)amino]methyl}-4-trifluoromethoxyphenyl)-N-ethylamino]-3,3-dimethylpentanoic acid hydrochloride]		250 nM	53.8%
CCN(CCCCCC(=O)O)c1cc2c(cc1CN(Cc1cc(C(F)(F)F)cc(C(F)(F)F)c1)c1nnn(C)n1)CCC2.Cl [Example 91, 6-[N-(6-{[N′-[3,5-bis(trifluoromethyl)benzyl]-N′-(2-methyl-2H-tetrazol-5-yl)amino]methyl}indan-5-yl)-N-ethylamino]hexanoic acid hydrochloride]		560 nM	44.7%
CCN(C[C@H]1CC[C@H](C(=O)O)CC1)c1ccc(C(F)(F)F)cc1CN(Cc1cc(C(F)(F)F)cc(C(F)(F)F)c1)c1nnn(C)n1.Cl [Example 96, trans-4-{[N-(2-{[N′-[3,5-bis(trifluoromethyl)benzyl]-N′-(2-methyl-2H-tetrazol-5-yl)amino]methyl}-4-trifluoromethylphenyl)-N-ethylamino]methyl}cyclohexanecarboxylic acid hydrochloride]		310 nM	41.1%
CCN(CCCCC(=O)OC)c1cc2c(cc1CN(Cc1cc(C(F)(F)F)cc(C(F)(F)F)c1)c1ccn(C)n1)CCC2.Cl [Example 37, methyl 5-[N-(6-[{N′-[3,5-bis(trifluoromethyl)benzyl]-N′-(1-methyl-1H-pyrazol-3-yl)amino]methyl}indan-5-yl)-N-ethylamino]pentanoate hydrochloride]	45.4%	800 nM	
CCN(CCCCC(=O)O)c1cc2c(cc1CN(Cc1cc(C(F)(F)F)cc(C(F)(F)F)c1)c1cc(C)no1)CCC2.Cl [Example 40, 5-[N-(6-{[N′-[3,5-bis(trifluoromethyl)benzyl]-N′-(3-methylisoxazol-5-yl)amino]methyl}indan-5-yl)-N-ethylamino]pentanoic acid hydrochloride]	59.5%	390 nM	
CCN(CCC(C)(C)CC(=O)O)c1cc2c(cc1CN(Cc1cc(C(F)(F)F)cc(C(F)(F)F)c1)c1nnn(C)n1)CCC2.Cl [Example 92, 5-[N-(6-{[N′-[3,5-bis(trifluoromethyl)benzyl]-N′-(2-methyl-2H-tetrazol-5-yl)amino]methyl}indan-5-yl)-N-ethylamino]-3,3-dimethylpentanoic acid hydrochloride]		190 nM	46.9%
CCN(CCCCC(=O)O)c1ccc(OC(F)(F)F)cc1CN(Cc1cc(C(F)(F)F)cc(C(F)(F)F)c1)c1nnn(C)n1.Cl [Example 89, 5-[N-(2-{[N′-[3,5-bis(trifluoromethyl)benzyl]-N′-(2-methyl-2H-tetrazol-5-yl)amino]methyl}-4-trifluoromethoxyphenyl)-N-ethylamino]pentanoic acid hydrochloride]		690 nM	77.7%
CCN(CCCCC(=O)O)c1cc2c(cc1CN(Cc1cc(C(F)(F)F)cc(C(F)(F)F)c1)c1nnn(C)n1)CCC2.Cl [Example 38, 5-[N-(6-{[N′-[3,5-bis(trifluoromethyl)benzyl]-N′-(2-methyl-2H-tetrazol-5-yl)amino]methyl}indan-5-yl)-N-ethylamino]pentanoic acid hydrochloride]	79.4%	470 nM	
CCN(C[C@H]1CC[C@H](C(=O)O)CC1)c1ccc(OC(F)(F)F)cc1CN(Cc1cc(C(F)(F)F)cc(C(F)(F)F)c1)c1nnn(C)n1.Cl [Example 98, trans-4-[{N-(2-{[N′-[3,5-bis(trifluoromethyl)benzyl]-N′-(2-methyl-2H-tetrazol-5-yl)amino]methyl}-4-trifluoromethoxyphenyl)-N-ethylamino]methyl}cyclohexanecarboxylic acid hydrochloride]		300 nM	43.3%
CCN(CCCCC(=O)O)c1cc2c(cc1CN(Cc1cc(C#N)cc(C(F)(F)F)c1)c1nnn(C)n1)CCC2.Cl [Example 39, 5-[N-(6-{[N′-(3-cyano-5-trifluoromethylbenzyl)-N′-(2-methyl-2H-tetrazol-5-yl)amino]methyl}indan-5-yl)-N-ethylamino]pentanoic acid hydrochloride]	49.6%	880 nM	
CCN(CCCCC(=O)OC)c1cc2c(cc1CN(Cc1cc(C(F)(F)F)cc(C(F)(F)F)c1)c1nnn(C)n1)CCC2.Cl [Example 35, methyl 5-[N-(6-{[N′-[3,5-bis(trifluoromethyl)benzyl]-N′-(2-methyl-2H-tetrazol-5-yl)amino]methyl}indan-5-yl)-N-ethylamino]pentanoate hydrochloride]	37.8%	350 nM	
CC(C)CN(C[C@H]1CC[C@H](C(=O)O)CC1)c1ccc(OC(F)(F)F)cc1CN(Cc1cc(C(F)(F)F)cc(C(F)(F)F)c1)c1nnn(C)n1 [Example 122, trans-4-{[N-(2-{[N′-[3,5-bis(trifluoromethyl)benzyl]-N′-(2-methyl-2H-tetrazol-5-yl)amino]methyl}-4-trifluoromethoxyphenyl)-N-isobutylamino]methyl}cyclohexanecarboxylic acid hydrochloride]		240 nM	
CCN(CCCCC(=O)O)c1cc2c(cc1CN(Cc1cc(C(F)(F)F)cc(C(F)(F)F)c1)c1ccn(C)n1)CCCC2 [Example 65, 5-[N-(3-{[N′-[3,5-bis(trifluoromethyl)benzyl]-N′-(1-methyl-1H-pyrazol-3-yl)amino]methyl}-5,6,7,8-tetrahydronaphthalen-2-yl)-N-ethylamino]pentanoic acid hydrochloride]		290 nM	
